# PMC10266688 (PLOS ONE, 2023)
# How the values were obtained:
# cellular DUB enzymes = test: Total cellular DUB activity, Ub-AMC cleavage, SKOV3 cells; conditions: 5 μM, 1 h
# CHOP10 mRNA = test: Q-PCR of CHOP10 mRNA; conditions: 1 μM, 4 h
# HeLa cells = test: MTT cytotoxicity assay, HeLa cells, 72 h; assay type: cell-based; conditions: Homo sapiens, 72 h treatment
# [1] = system: ES2-luc human ovarian tumor; test: ES2-luc xenograft model, nude mice; assay type: in vivo, mouse; conditions: 10 mg/kg IP every 3 days
# Protocol: Female Nude mice were inoculated IP with 1x10^6 ES2-luc in 100 μL PBS. At day 3, mice were imaged for basal level luminescence activity with a Xenogen IVIS 200 after IP injection with luciferin (0.3 mg in 100 μL water). Mice were randomized into groups and treated IP with compounds or vehicle (25% (w/v) β-Hydroxypropylcyclodextrin in water), and imaged again on days indicated.
# Briefly mice were injected IP with ES2-luc cells, as ovarian cancer primarily spreads through the peritoneum, and it is the origin of primary peritoneal cancer. After four days, these mice were injected IP with luciferin and bioluminescence imaged by IVIS imager as a surrogate of tumor burden. […] Bioluminescent imaging was performed by IVIS 12 and 21 days later.
# A-C) Female nude mice were inoculated IP with ES2-luc cells, a human ovarian cancer line expressing luciferase. […] The IP tumor tissue and electroporated normal muscle tissue, being spatially distinct, were identified with separate regions of interest (ROI) after simultaneous imaging with IVIS.
# GAPDH, RPN2 and USP14 = test: CETSA control proteins, SKOV3 cells; assay type: binding, human; conditions: SKOV3, 10 μM, 30 min
# Protocol: Cells were incubated in a thermal cycler (Biorad IQ5 Cycler) over a gradient of temperatures for 4 min, followed by incubation at 25°C for 3 min, then snap-frozen in liquid nitrogen and subjected to three freeze–thaw cycles. Samples were briefly vortexed and centrifuged at 16,000 x g for 20 min at 4°C. Cleared cell lysates were resolved in SDS–PAGE followed by immunoblotting for RPN13, GAPDH, RPN2 and USP14.
# Cellular Thermal Shift Assay (CETSA) assesses thermal stabilization of proteins upon ligand binding and is used extensively to detect drug interactions by implementing a thermal shift in the cellular context. The assay involves drug treatment of cells, heating to denature and precipitate proteins in a thermocycler with a specified gradient of temperatures, cell lysis by freeze/thaw cycles, and the separation of cell debris and aggregates from the soluble protein fraction by centrifugation. Whereas unbound proteins denature and precipitate at elevated temperatures, ligand-bound proteins remain in solution. The proportion of individual proteins remaining in solution can be detected by quantitative Western blotting. […]. There was no impact on other control proteins tested, including a house keeping protein (GAPDH) and proteasome subunits (RPN2 and USP14). […]
# Resuspended cells were aliquoted into PCR strips. […]
# [2] = Tissue distribution in CD1 mice, LC-MS/MS; assay type: in vivo, mouse; conditions: 40 mg/kg IV
# Protocol: Tissue homogenates were prepared at a concentration of 200 mg/mL in PBS. After vortex-mixing and centrifuging for 5 min at 2700 rpm. […] Mobile phase A was water containing 0.1% formic acid, and mobile phase B was acetonitrile containing 0.1% formic acid. The gradient started with mobile phase B at 20% and was held at 20% for 0.5 min with a flow rate of 0.3 mL/min, then increased to 100% over 0.5 minutes and held for 2.0 min, and finally returned back to 20% mobile phase B and allowed to equilibrate until 4.1min. […] The lower limit of quantitation (LLOQ) in plasma was 10 ng/mL.
# A) ES2 cells stably transduced with the 4UbFL reporter plasmid were treated with compounds at indicated doses for 4 h. The cells were then washed, lysed and their luminescence measured by a luminometer after addition of luciferin. B) Female CD1 mice electroporated with 4UbFL plasmid in their leg muscle. After 48 h, the mice were injected with luciferin, imaged by IVIS for their basal bioluminescence and randomized into two groups of five. […] D) Up284 tissue distribution. […] Up284 levels in tissue samples were analyzed by HPLC. E) Up284 pharmacokinetics. […] Blood was collected at indicated time points thereafter and analyzed for Up284 levels by HPLC.
# Up284 levels were analyzed in all major tissues (brain, colon, heart, kidney, liver, lung and spleen) by liquid chromatography–mass spectrometry (LC–MS/MS).
# [3] = system: PEA2, PACS and SKOV3 cells; test: Checkerboard combination cytotoxicity (MTT, Synergy finder); assay type: cell-based; conditions: 72 h
# Protocol: Results are reported as mean ± standard deviation (s.d.). Statistical significance of differences was assessed by two-tailed Student’s t using Prism (V.5 Graphpad, San Diego, CA) with the level of significance set at p≤0.05. Survival was summarized using Kaplan–Meier methods and compared using log-rank tests. Combination indices (CI) were calculated using Synergy finder.
# Cell viability was measured using MTT assay and data was processed using the Synergy Finder web application. B) Same as in A, PACS cell line derived from spontaneous mouse ovarian tumor [32], was used. (TIF) Click here for additional data file.
# Cell viability was measured using MTT assay and data was processed using the Synergy Finder web application. (TIF) Click here for additional data file.
# ES2 cells = test: Seahorse assay (OCR, ECAR)
# SKOV3 cells = test: MTT cytotoxicity assay, SKOV3 cells, 72 h; assay type: cell-based; conditions: Homo sapiens, SK-OV-3; 72 h treatment
# [4] = Plasma stability, mouse EDTA plasma; assay type: in vitro ADME; conditions: for % Drug Remaining, Plasma (Mouse EDTA): 10 μM, 37°C
# [5] = Repeat IP dosing tolerability in Balb/c and C57BL/6 mice; assay type: in vivo; conditions: female Balb/c and C57BL/6 mice
structure (smiles),measurement,setting,value
N#Cc1ccc(/C=C2/C(=O)/C(=C/c3ccc(C#N)cc3)C23CCNCC3)cc1 [Up284],total lysate DUB enzymatic activity (Ub-AMC),cellular DUB enzymes,No reduction
same,CHOP10 mRNA levels,CHOP10 mRNA,rapid upregulation
same,IC50,HeLa cells,40 nM
same,ES2-luc xenograft tumor burden (bioluminescence) vs vehicle,"[1]; days 12 and 21, p = 0.0002",significantly reduced
same,overall survival vs vehicle,[1]; p = 0.005,increased overall survival
same,"thermal stabilization of GAPDH, RPN2 and USP14","GAPDH, RPN2 and USP14",no impact
same,plasma level at 24 h,[2],low
same,"tissue levels (brain, colon, heart, kidney, liver, lung and spleen)",[2]; 24 h,"accumulated in all the tissues, particularly the lungs"
same,cytotoxicity of Up284 and doxorubicin combination,[3]; SKOV3 cells,synergy
same,cytotoxicity of checkerboard combinations of Up284 and cisplatin,[3]; several cell lines including PEA2 and PACS,clear evidence of synergy
same,proton leakage,"ES2 cells; ES2, 0.5 μM",did not impact
same,"oxygen consumption rate (OCR), basal and FCCP-stimulated, and ATP production","ES2 cells; ES2, 0.5 μM, 12 h",significant decrease in OCR
same,extracellular acidification rate (ECAR),"ES2 cells; ES2, after 24 h treatment",trend for reduction
same,IC50,SKOV3 cells,71 nM
same,"% Drug Remaining, Plasma (Mouse EDTA)",[4]; 0 min,100%
same,"% Drug Remaining, Plasma (Mouse EDTA)",[4]; 30 min,84%
same,"% Drug Remaining, Plasma (Mouse EDTA)",[4]; 60 min,94%
same,degradation in murine plasma,[4]; after incubating for 1 hour,< 10%
same,tolerability of 60 mg/kg IP every third day,[5],toxic
same,MTD,"[5]; mouse, in vivo, ip, read-out: MTD after 3 doses, IP delivery every third day",40 mg/kg
